The results in this text go back to patent EP2975030B1, “DIHYDROPYRIDAZINE-3,5-DIONE DERIVATIVE” (Chugai Seiyaku Kabushiki Kaisha, priority 2013, dated 2014).

Each structure is given as a SMILES string.

One test relates to rat small-intestinal brush border membrane vesicles. The experiment in a line: Inhibitory effect on 33PO4 uptake into rat small-intestinal brush border membrane vesicles (rapid filtration method). To be noted: 1 µM test compound; 33PO4 uptake into rat small-intestinal BBMVs, 60 seconds. Type of test: biochemical, Wistar female rat. The method in brief:
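Uptake was terminated by ice-cold 110 mM NaCl, 1 mM KH2PO4, 10 mM HEPES (pH 7.5) buffer and immediate suction filtration, then washing. Using rat small-intestinal BBMVs, retained 33PO4 was quantified by liquid scintillation counting as transport activity.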
Turning to `CN1[C@@H](C(C)(C)C)C(O)=C(C(=O)Nc2ccc(C(F)(F)F)cc2-c2cc(C(F)(F)F)ncn2)C(=O)N1Cc1ccc(OCCN2CCOCC2)c(F)c1F` [Example 264, (3S)-3-tert-Butyl-1-[[2,3-difluoro-4-(2-morpholin-4-ylethoxy)phenyl]methyl]-4-hydroxy-2-methyl-6-oxo-N-[4-(trifluoromethyl)-2-[6-(trifluoromethyl)pyrimidin-4-yl]phenyl]-3H-pyridazine-5-carboxamide], the “Rate of uptake inhibition (%) (1 µM)” value stood at 48%.

In the case of `COCCN(C)CCOc1ccc(CN2C(=O)C(C(=O)Nc3ccc(C(F)(F)F)cc3-c3cc(C(F)(F)F)ncn3)=C(O)C3(CCCC3)N2C)c(F)c1F` [Example 14, 7-[[2,3-Difluoro-4-[2-[2-methoxyethyl(methyl)amino]ethoxy]phenyl]methyl]-10-hydroxy-6-methyl-8-oxo-N-[4-(trifluoromethyl)-2-[6-(trifluoromethyl)pyrimidin-4-yl]phenyl]-6,7-diazaspiro[4.5]dec-9-ene-9-carboxamide], the “Rate of uptake inhibition (%) (1 µM)” value stood at 29%.

Take `C[C@]12CCCN1N(Cc1ccc(C#CCCCC(=O)O)c(F)c1F)C(=O)C(C(=O)Nc1ccc(C(F)(F)F)cc1-c1cc(C(F)(F)F)ncn1)=C2O` [Example 129, 6-[4-[[(4aR)-4-Hydroxy-4a-methyl-2-oxo-3-[[4-(trifluoromethyl)-2-[6-(trifluoromethyl)pyrimidin-4-yl]phenyl]carbamoyl]-6,7-dihydro-5H-pyrrolo[1,2-b]pyridazin-1-yl]methyl]-2,3-difluorophenyl]hex-5-ynoic acid]: the “Rate of uptake inhibition (%) (1 µM)” value came out at 63%.

Regarding `CN1N(Cc2cccc(F)c2F)C(=O)C(C(=O)Nc2ccc(C(F)(F)F)cc2-c2ccc(S(=O)(=O)N(C)C)cc2)=C(O)C1(C)C` [Example 308], the “Rate of uptake inhibition (%) (1 µM)” value came to 63%.

As for `CC(C)(C)[C@H]1C(O)=C(C(=O)Nc2ccc(Cl)cc2-c2ccc(C(F)(F)F)nc2)C(=O)N(Cc2cccc(F)c2F)N1CC(F)(F)F` [Example 247], the “Rate of uptake inhibition (%) (1 µM)” value turned out to be 51%.

Take `CN1[C@@H](C(C)(C)C)C(O)=C(C(=O)Nc2cc(F)c(Br)c(F)c2)C(=O)N1Cc1cccc(F)c1F` [Example 240]: the “Rate of uptake inhibition (%) (1 µM)” value was found to be 72%.

For `CN(CCO)CCOc1ccc(CN2C(=O)C(C(=O)Nc3ccc(C(F)(F)F)cc3-c3cc(C(F)(F)F)ncn3)=C(O)C3(CCCC3)N2C)c(F)c1F` [Example 373], the “Rate of uptake inhibition (%) (1 µM)” value was found to be 27%.

Consider `Cc1c(C#N)ncnc1-c1cc(Cl)ccc1NC(=O)C1=C(O)[C@H](C(C)(C)C)N(C)N(Cc2ccc(OCCN3CCOCC3)c(F)c2F)C1=O` [Example 274], for which the “Rate of uptake inhibition (%) (1 µM)” value was 43%.

In the case of `CN1[C@@H](C(C)(C)C)C(O)=C(C(=O)Nc2ccc(Br)c(C(F)(F)F)c2)C(=O)N1Cc1cccc(F)c1F` [Example 243], the “Rate of uptake inhibition (%) (1 µM)” value worked out at 63%.

`COc1cccc(-c2cc(C(F)(F)F)ccc2NC(=O)C2=C(O)[C@@]3(C)CCCN3N(Cc3ccc(OC4CCOCC4)c(F)c3F)C2=O)c1OC` [Example 158]: the “Rate of uptake inhibition (%) (1 µM)” value is 84%.

Turning to `Cc1cc(-c2cc(C(F)(F)F)ccc2NC(=O)C2=C(O)[C@@]3(C)CCCN3N(Cc3cccc(F)c3F)C2=O)cnc1C#N` [Example 101], the “Rate of uptake inhibition (%) (1 µM)” value is recorded as 57%.

`COCCN(C)CCOCCOCCOCCOCCOc1ccc(CN2C(=O)C(C(=O)Nc3ccc(C(F)(F)F)cc3-c3cc(C(F)(F)F)ncn3)=C(O)C3(CCCC3)N2C)c(F)c1F` [Example 432]: the “Rate of uptake inhibition (%) (1 µM)” value was 11%.

In the case of `COc1cccc(-c2cc(C(F)(F)F)ccc2NC(=O)C2=C(O)[C@@]3(C)CCCN3N(Cc3ccc(C#CCOCCOCCO)c(F)c3F)C2=O)c1OC` [Example 139], the “Rate of uptake inhibition (%) (1 µM)” value was 88%.

With `CN(CCOc1ccc(CN2C(=O)C(C(=O)Nc3ccc(C(F)(F)F)cc3-c3cc(C(F)(F)F)ncn3)=C(O)C3(CCCC3)N2C)c(F)c1F)C1COC1` [Example 412, 7-(2,3-Difluoro-4-(2-(methyl(oxetan-3-yl)amino)ethoxy)benzyl)-10-hydroxy-6-methyl-8-oxo-N-(4-(trifluoromethyl)-2-(6-(trifluoromethyl)pyrimidin-4-yl)phenyl)-6,7-diazaspiro[4.5]dec-9-ene-9-carboxamide], the “Rate of uptake inhibition (%) (1 µM)” value is 52%.

Regarding `C[C@]12CCCN1N(Cc1c(F)cccc1Cl)C(=O)C(C(=O)Nc1ccc(C(F)(F)F)cc1-c1ccc(C(F)(F)F)nc1)=C2O` [Example 204], the “Rate of uptake inhibition (%) (1 µM)” value was found to be 87%.

On to `C[C@]12CCCN1N(Cc1c(F)cc(CCCCCCCOC[C@H](O)[C@@H](O)CO)cc1F)C(=O)C(C(=O)Nc1ccc(C(F)(F)F)cc1-c1ccc(C(F)(F)F)nc1)=C2O` [Example 125, (4aR)-1-[[2,6-Difluoro-4-[7-[(2S,3S)-2,3,4-trihydroxybutoxy]heptyl]phenyl]methyl]-4-hydroxy-4a-methvl-2-oxo-N-[4-(trifluoromethyl)-2-[6-(trifluoromethyl)pyridin-3-yl]phenyl]-6,7-dihydro-5H-pyrrolo[1,2-b]pyridazine-3-carboxamide], for which the “Rate of uptake inhibition (%) (1 µM)” value is on record as 76%.

With `COCCOCCOCCCCCCCCN1C(=O)C(C(=O)Nc2ccc(C(F)(F)F)cc2-c2cc(C(F)(F)F)ncn2)=C(O)[C@@]2(C)CCCN12` [Example 236, (4aR)-4-Hydroxy-1-[8-[2-(2-methoxyethoxy)ethoxy]octyl]-4a-methyl-2-oxo-N-[4-(trifluoromethyl)-2-[6-(trifluoromethyl)pyrimidine-4-yl]phenyl]-6,7-dihydro-5H-pyrrolo[1,2-b]pyridazine-3-carboxamide], the “Rate of uptake inhibition (%) (1 µM)” value is 60%.

For the compound `C[C@]12CCCN1N(Cc1cccc(F)c1F)C(=O)C(C(=O)Nc1ccc(C(F)(F)F)cc1-c1cnc(C#N)c([N+](=O)[O-])c1)=C2O` [Example 99, (4aR)-N-[2-(6-Cyano-5-nitropyridin-3-yl)-4-(trifluoromethyl)phenyl]-1-[(2,3-difluorophenyl)methyl]-4-hydroxy-4a-methyl-2-oxo-6,7-dihydro-5H-pyrrolo[1,2-b]pyridazine-3-carboxamide], the “Rate of uptake inhibition (%) (1 µM)” value was found to be 82%.

For the compound `CN1N(Cc2ccc(OCCN3CCN(CCO)CC3)c(F)c2F)C(=O)C(C(=O)Nc2ccc(C(F)(F)F)cc2-c2cc(C(F)(F)F)ncn2)=C(O)C12CCCC2` [Example 376], the “Rate of uptake inhibition (%) (1 µM)” value amounted to 33%.

As for `CN1N(Cc2ccc(C#CCN3CCOCC3)c(F)c2F)C(=O)C(C(=O)Nc2ccc(C(F)(F)F)cc2-c2cc(C(F)(F)F)ncn2)=C(O)C1(C)C` [Example 315, 2-[[2,3-Difluoro-4-(3-morpholin-4-ylprop-1-ynil)phenyl]methyl]-5-hydroxy-1,6,6-trimethyl-3-oxo-N-[4-(trifluoromethyl)-2-[6-(trifluoromethyl)pyrimidin-4-yl]phenyl]pyridazine-4-carboxamide], the “Rate of uptake inhibition (%) (1 µM)” value is on record as 63%.

In the case of `COCCN(C)CCOCCOc1ccc(CN2C(=O)C(C(=O)Nc3ccc(C(F)(F)F)cc3-c3cc(C(F)(F)F)ncn3)=C(O)C3(CCCC3)N2C)c(F)c1F` [Example 429, 7-[[2,3-Difluoro-4-[2-[2-[2-methoxyethyl(methyl)amino]ethoxy]ethoxy]phenyl]methyl]-10-hydroxy-6-methyl-8-oxo-N-[4-(trifluoromethyl)-2-[6-(trifluoromethyl)pyrimidin-4-yl]phenyl]-6,7-diazaspiro[4.5]dec-9-ene-9-carboxamide], the “Rate of uptake inhibition (%) (1 µM)” value worked out at 41%.

As for `C[C@@]12CCCN1N(Cc1ccc(OCCN3CCOCC3)c(F)c1F)C(=O)C(C(=O)Nc1ccc(Cl)cc1-c1cc(C(F)(F)F)ncn1)=C2O.Cl` [Example 107], the “Rate of uptake inhibition (%) (1 µM)” value is on record as 54%.

Take `Cc1c(-c2cc(C(F)(F)F)ccc2NC(=O)C2=C(O)C3(CCC3)N(C)N(Cc3ccc(OCCN4CCOCC4)c(F)c3F)C2=O)ncnc1C(F)(F)F` [Example 285]: the “Rate of uptake inhibition (%) (1 µM)” value turned out to be 62%.

With `C[C@]12CCCN1N(Cc1ccc(OCCCCCO)c(F)c1F)C(=O)C(C(=O)Nc1ccc(C(F)(F)F)cc1-c1cc(C(F)(F)F)ncn1)=C2O` [Example 162], the “Rate of uptake inhibition (%) (1 µM)” value was found to be 73%.

On to `C[C@]12CCCN1N(Cc1c(F)cc(C#CCCOC[C@H](O)CO)cc1F)C(=O)C(C(=O)Nc1ccc(C(F)(F)F)cc1-c1ccc(C(F)(F)F)nc1)=C2O` [Example 145], for which the “Rate of uptake inhibition (%) (1 µM)” value worked out at 78%.

`CC1(C)CC[C@]2(C)C(O)=C(C(=O)Nc3cc(C(F)(F)F)ccc3-c3ccc(C(F)(F)F)nc3)C(=O)N(Cc3cccc(F)c3F)N12` [Example 63]: the “Rate of uptake inhibition (%) (1 µM)” value was determined as 72%.

Consider `Cc1cc(NC(=O)C2=C(O)[C@H]3CCCN3N(Cc3cccc(F)c3)C2=O)c(C(F)(F)F)o1` [Example 2, (4aR)-1-[(3-Fluorophenyl)methyl]-4-hydroxy-N-[5-methyl-2-(trifluoromethyl)furan-3-yl]-2-oxo-4a,5,6,7-tetrahydropyrrolo[1,2-b]pyridazine-3-carboxamide], for which the “Rate of uptake inhibition (%) (1 µM)” value stood at 19%.

For a further test, the system named is adenine-induced renal failure rat. The experiment in a line: Suppressive effect on rise in serum phosphorus concentration of adenine-induced renal failure rat (0.1% in feed, 3 days). It counts as in vivo, Wistar male rat. To be noted: feed or water, 72 h, rate of suppression of a rise in serum phosphorus concentration, 0.1% of mass concentration in feed. From the text: Test Example 5: Suppressive effect on rise in serum phosphorus concentration of adenine-induced renal failure rat Adenine was forcedly administered orally to each Wistar male rat (7-8 weeks old) to impair renal functions and thereby prepare a hyperphosphatemia model ([…], Nagano N, Burke SK, Fukushima N. Sevelamer hydrochloride prevents ectopic calcification and renal osteodystrophy in chronic renal failure rats. Kidney Int. 2003 Aug; 64 (2): 441-50). Each test compound was mixed at a ratio of 0.1% of mass concentration with feed. The animal was fed with a given amount of the feed for 3 days. A group given feed non-supplemented with a test compound was used as a reference pathological group, and an adenine-unadministered group given feed non-supplemented with a test compound was used as a normal group. 3 days after the start of administration of the test compound, blood was collected from the jugular vein, and serum was collected. Serum phosphorus concentrations were measured by the Fiske-Subbarow method. The rate of suppression of a rise in serum phosphorus concentration was determined according to the following expression: Rate (%) of suppression of a rise in serum phosphorus concentration = (1-[([…]-treatedpathologicalgroup); -(Serumphosphorusconcentrationofthenormalgroup)]/; [(Serumphosphorusconcentrationofthereferencepathologicalgroup)-(Serumphosphorusconcentrationofthenormalgroup)]) × 100 [formula] As a result, each test compound was confirmed to have a suppressive effect on a rise in serum phosphorus concentration. […]
Turning to `CN1[C@@H](C(C)(C)C)C(O)=C(C(=O)Nc2ccc(C(F)(F)F)cc2-c2cc(C(F)(F)F)ncn2)C(=O)N1Cc1ccc(OCCN2CCOCC2)c(F)c1F` [Example 264, (3S)-3-tert-Butyl-1-[[2,3-difluoro-4-(2-morpholin-4-ylethoxy)phenyl]methyl]-4-hydroxy-2-methyl-6-oxo-N-[4-(trifluoromethyl)-2-[6-(trifluoromethyl)pyrimidin-4-yl]phenyl]-3H-pyridazine-5-carboxamide], the inhibition in vivo (as a rule, the change of the read-out against control, counted positive when it falls) at 0.1 %, 0.1 % in feed is 15%.

`COCCN(C)CCOc1ccc(CN2C(=O)C(C(=O)Nc3ccc(C(F)(F)F)cc3-c3cc(C(F)(F)F)ncn3)=C(O)C3(CCCC3)N2C)c(F)c1F` [Example 14, 7-[[2,3-Difluoro-4-[2-[2-methoxyethyl(methyl)amino]ethoxy]phenyl]methyl]-10-hydroxy-6-methyl-8-oxo-N-[4-(trifluoromethyl)-2-[6-(trifluoromethyl)pyrimidin-4-yl]phenyl]-6,7-diazaspiro[4.5]dec-9-ene-9-carboxamide] showed an inhibition in vivo at 0.1 %, 0.1 % in feed of 39%.

In the case of `C[C@]12CCCN1N(Cc1ccc(C#CCCCC(=O)O)c(F)c1F)C(=O)C(C(=O)Nc1ccc(C(F)(F)F)cc1-c1cc(C(F)(F)F)ncn1)=C2O` [Example 129, 6-[4-[[(4aR)-4-Hydroxy-4a-methyl-2-oxo-3-[[4-(trifluoromethyl)-2-[6-(trifluoromethyl)pyrimidin-4-yl]phenyl]carbamoyl]-6,7-dihydro-5H-pyrrolo[1,2-b]pyridazin-1-yl]methyl]-2,3-difluorophenyl]hex-5-ynoic acid], the inhibition in vivo at 0.1 %, 0.1 % in feed was 17%.
